Test: Corrosion inhibition on steel coupons immersed in 1M HCl for 2 hrs
Procedure: The corrosion inhibitor composition of the example—1 is tested for its corrosion inhibition effect on steel at two temperatures. The steel being the ferrous alloy has the following composition:
The steel coupons are initially abraded with various emery papers of decreasing coarseness i.e. 80, 150, 220, 400 grits to obtain a fine finish surface. The fine finished coupons are cleaned with acetone and then wrapped in paper to avoid any further oxidation and stored in a safe and dry place until further use. The 400 grit finished coupons are immersed in 100 ml 1M HCl solution for 2 hrs at room temperature and at […], to find out the corrosion rate. Similarly, the fine finished coupons are also immersed in 100 ml 1M HCl along with the composition of the example—1 with an effective concentration of inhibitor 200, 500 and 1000 ppm for 2 hrs at room temperatures. […] As, it is also essential for the corrosion inhibitors to perform well in case of higher temperatures. Further, the composition of example—1 is tested at higher temperatures. The below Table-2 provides the information on test results. It is evident from the Table-2 that the inhibition efficiencies at 60° C. is relatively higher than that of room temperature. The average corrosion rates (CR) at room temperature and 60° C. in 1 M HCl without inhibitor for 2 hrs immersion are 1.1081 cm/y and 16.42325 cm/y respectively. The inhibition efficiency (IE) is calculated using the formula: […]

Cc1ccc(C=O)s1 [5-Methyl-2-thiophenecarboxaldehyde, 5-methyl-2-thiophenecarboxaldehyde]
IE (%) (200 ppm, no KI intensifier, 27 °C): 54.03% | IE (%) (500 ppm, no KI intensifier, 27 °C): 63.58% | IE (%) (1000 ppm, 0.1 wt % KI, 27 °C): 84.07% | IE (%) (1000 ppm, 0.25 wt % KI, 27 °C): 90.43% | IE (%) (1000 ppm, 0.5 wt % KI, 27 °C): 92.36% | IE (%) (1000 ppm, 0.5 wt % KI, 60 °C): 95.06% | IE (%) (1000 ppm, no KI intensifier, 27 °C): 72.65%

— patent publication US20250327191A1, “CORROSSION INHIBITOR COMPOSITIONS” (Tata Consultancy Services Limited, priority 2024, published 2025)
